Measurements published in paper PMC12767106, “In Situ Assembly of Transformable Monopeptide on Activated Neutrophils Attenuates NETs‐Induced Hepatocellular Carcinoma Metastasis by Disrupting NE Nuclear Translocation” (Advanced Science, 2025).

Legend:
[1] = test system: mice bearing Hepa1-6/luc tumors; assay: Biodistribution by in vivo and ex vivo fluorescence imaging; set-up: species or system mouse
Method: To further evaluate the tumor tissue accumulation of FTP‐NPs in vivo, we conducted in vivo biodistribution studies using a murine model. For biodistribution studies, mice bearing Hepa1‐6/luc tumors were treated by NFTP‐NPs and FTP‐NPs via tail vein injection and monitored over time using an In‐Vivo system (IVIS, Figure 4a). After 12, 24, 48, and 168 h, tumors and major organs were collected for ex vivo fluorescence imaging (Figure S16a, Supporting Information). The fluorescence signal of the FTP‐NPs group was still detectable in tumor tissues after more than 3 days and lasted up to 7 days. In situ receptor‐mediated transformation of FTP‐NPs to NE‐fibril clusters in the tumor microenvironment may be responsible for the prolonged preservation of the fluorescence signal in FTP‐NPs‐treated mice, even after 7 days. […] The fluorescence signal of tumor tissue in the FTP‐NPs group at 48 h was 7.1‐fold higher than that in the NFTP‐NPs group (Figure S16b, Supporting Information).
(§1) Submitted to Advanced Science
Figure S16. Time-dependent ex vivo fluorescence (FL) images (a) and quantitative analysis (b) of tumor tissues and major organs (heart (H), liver (Li), spleen (Sp), lung (Lu), kidney (K), intestine(I), muscle (M), skin (Sk), and brain (B)) collected at 12, 24, 48, and 168 h post-injection of NFTP-NPs and FTP-NPs.
Figure S17. Gating strategy for T cell analysis. The tumor-bearing mice from each group were euthanized on day 20 post-treatment. Fifty thousand events were collected for each sample in the study. CD45+ cell counts determined the total T cell number, and CD8+ T cells were then gated within CD3+ T lymphocytes.
Figure S18. Corresponding flow cytometric quantification of CD8+T cells (CD45+CD3+CD8+, n = 3). Data are presented as mean ± s.d., n = 3 independent experiments. Statistical significance was calculated by one-way […]

[2] = biological target: T1, NE of activated neutrophils (Mus musculus, UniProt Q3UP87); assay: Quantitative analysis of NE activity (NETosis Assay Kit); type: cell-based; conditions: activated neutrophils (PMA), 4 h, NPs 0-200 µM; FTP-NPs result stated at 50 µM
T1 construct: endogenous in cells
T1 sequence (Q3UP87 27-265): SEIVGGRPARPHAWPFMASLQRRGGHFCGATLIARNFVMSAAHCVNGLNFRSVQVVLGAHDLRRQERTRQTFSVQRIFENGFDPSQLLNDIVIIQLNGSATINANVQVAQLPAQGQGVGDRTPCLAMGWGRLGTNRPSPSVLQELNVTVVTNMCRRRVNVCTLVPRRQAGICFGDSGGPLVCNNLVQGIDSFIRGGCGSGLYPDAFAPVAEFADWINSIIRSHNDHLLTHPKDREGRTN
Method: as §1
Neutrophil Elastase Activity Assay
To evaluate the distribution of active NE on the surface and inside of neutrophils, we used a kit (AkrivisBio’s Neutrophil Elastase Activity Assay, MA-0156), seeded neutrophils in confocal microscopy dishes, and then treated them with NFTP-NPs (50 µM, medium: DMSO = 99:1, v/v), FTP-NPs (50 µM, medium: DMSO = 99:1, v/v), PMA+NFTP-NPs (50 µM, medium: DMSO = 99:1, v/v), and PMA+FTP-NPs (50 µM, medium: DMSO = 99:1, v/v) at 37°C. Because the Neutrophil elastase in the kit cleaves a concrete fluorogenic substrate which releases AFC, providing intense fluorescence, 50 μl of MeOSucc-AAPV-AFC mix (Assay Buffer: MeOSucc-AAPV-AFC = 48:2) was added at 4 h, and after incubation for 1 h, the samples were examined by CLSM (LSM980, Zeiss, Germany).
Quantitative analysis of NE activity […]
DMSO = 99:1, v/v) for 4 h to obtain the solution.35,36 Quantitative analysis was carried out by a NETosis Assay Kit (Cayman Chemical, USA).
Quantitative induction analysis of NETs in vitro […]
According to the manufacturer's instructions, MPO -DNA levels in cultured supernatant were analyzed by an ELISA kit (MEIMIAN, China).38 Briefly, samples were added to each well and incubated with anti -MPO and anti-DNA antibodies for 2 h at room temperature. […] The OD value w as then measured by a microplate

[3] = Nanoparticle size stability by DLS; type: physicochemical; conditions: room temperature, 20 µM, up to 168 h, method and Figure S3 legend name H2O and medium, repeated thrice
[4] = tail vein injection, IVIS imaging

Substance	fluorescence signal in major organs by 72 h [1, 4]	activity of NE [2]	size change in PBS and FBS solutions within 168 h [3]	fluorescence signal of tumor tissue relative to NFTP-NPs group ([1]; 48 h after tail vein injection, ex vivo imaging)	duration of fluorescence signal in tumor tissues [1, 4]
PpIX-GGGAAK-EAIPMSIPPEVK [NFTP-NPs, nanoparticles of the non-fibrillar transformable control peptide NFTP]	essentially undetectable	no significant effect	did not change significantly	–	–
PpIX-GFFVLK-EAIPMSIPPEVK [FTP-NPs]	–	almost disappeared	did not change significantly	7.1 fold	up to 7 days
